These results are taken from patent publication US12319672B2, “Alpha-D-galactopyranoside derivatives” (Idorsia Pharmaceuticals Ltd, priority 2019, dated 2025).

The target of test [1] is human Gal-3 (hGal-3) (Homo sapiens (Human), UniProt P17931). Kind of test: Competitive binding assay: binding of biotinylated hGal-3 to microplate-adsorbed asialofetuin (ASF). As to conditions: Activity on hGal-3; mean values of several measurements. In short, it runs like this:
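Compounds in DMSO dilution series competed with 300-1000 ng/mL biotinylated hGal-3 for asialofetuin adsorbed on the plate (3 h, 4° C). Streptavidin-peroxidase at 80 ng/mL (1 h, 4° C) with ABTS gave a spectrophotometric read-out, and IC50 was reported as the mean of repeat runs.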

Test [2] concerns the target human Gal-1 (hGal-1). The test is described as follows: Competitive binding assay: binding of biotinylated hGal-1 to microplate-adsorbed asialofetuin (ASF). As to conditions: Activities on hGal-1; mean values of several measurements. In short, it runs like this:
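For hGal-1, a variant with all six cysteines replaced by serines is preferred. Either galectin, biotinylated at 300-1000 ng/mL, competes with compound for microplate-bound ASF over 3 h at 4° C; peroxidase/ABTS detection gives IC50, averaged.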

Broadly, the IC50 is the midpoint of a concentration-inhibition curve.

Sequence of human Gal-1 (hGal-1) (P09382 2-135 limits assumed): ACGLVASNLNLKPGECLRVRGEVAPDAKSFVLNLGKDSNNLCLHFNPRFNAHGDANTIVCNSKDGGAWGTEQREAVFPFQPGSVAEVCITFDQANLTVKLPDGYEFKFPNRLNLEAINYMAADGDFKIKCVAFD
Sequence of human Gal-3 (hGal-3) (P17931 whole entry): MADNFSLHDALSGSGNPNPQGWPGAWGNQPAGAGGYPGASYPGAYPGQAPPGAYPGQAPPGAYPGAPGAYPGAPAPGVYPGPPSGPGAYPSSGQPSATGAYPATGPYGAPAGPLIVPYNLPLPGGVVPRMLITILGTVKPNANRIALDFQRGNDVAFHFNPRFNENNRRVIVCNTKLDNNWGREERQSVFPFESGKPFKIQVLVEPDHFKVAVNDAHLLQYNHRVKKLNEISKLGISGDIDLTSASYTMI

Take `CO[C@@H]1[C@@H](n2cc(-c3ccc(Cl)c(F)c3F)nn2)[C@@H](O)[C@@H](CO)O[C@@H]1Cn1cc(C(C)(C)C)nn1` [Example 4.55, (2R,3R,4S,5R,6R)-6-((4-(tert-butyl)-1H-1,2,3-triazol-1-yl)methyl)-4-(4-(4-chloro-2,3-difluorophenyl)-1H-1,2,3-triazol-1-yl)-2-(hydroxymethyl)-5-methoxytetrahydro-2H-pyran-3-ol]: the figures for the IC50 in test [1] and in test [2] were 31 nM and 950 nM, respectively.

For `CO[C@@H]1[C@@H](n2cc(-c3cc(F)c(F)c(F)c3)nn2)[C@@H](O)[C@@H](CO)O[C@@H]1C[C@@H]1CN(C2CCN(C(C)=O)CC2)C(=O)O1` [Example 5.05, (R)-3-(1-acetylpiperidin-4-yl)-5-(((2R,3R,4S,5R,6R)-5-hydroxy-6-(hydroxymethyl)-3-methoxy-4-(4-(3,4,5-trifluorophenyl)-1H-1,2,3-triazol-1-yl)tetrahydro-2H-pyran-2-yl)methyl)oxazolidin-2-one], the values for the IC50 in test [1] and in test [2] were 330 nM and 300 nM, respectively.

In the case of `CO[C@@H]1[C@@H](n2cc(-c3cc(F)c(F)c(F)c3)nn2)[C@@H](O)[C@@H](CO)O[C@@H]1C[C@H]1CN(C2CCN(C(C)=O)CC2)C(=O)O1` [Example 5.06, (S)-3-(1-acetylpiperidin-4-yl)-5-(((2R,3R,4S,5R,6R)-5-hydroxy-6-(hydroxymethyl)-3-methoxy-4-(4-(3,4,5-trifluorophenyl)-1H-1,2,3-triazol-1-yl)tetrahydro-2H-pyran-2-yl)methyl)oxazolidin-2-one], the figures for the concentration for half-maximal inhibition (IC50) in test [1] and in test [2] were 96 nM and 270 nM, respectively.

On to `CO[C@@H]1[C@@H](n2cc(-c3cc(F)c(F)c(F)c3)nn2)[C@@H](O)[C@@H](CO)O[C@@H]1C[C@H]1CN(C2CCN(S(C)(=O)=O)CC2)C(=O)O1` [Example 5.07, (S)-5-(((2R,3R,4S,5R,6R)-5-hydroxy-6-(hydroxymethyl)-3-methoxy-4-(4-(3,4,5-trifluorophenyl)-1H-1,2,3-triazol-1-yl)tetrahydro-2H-pyran-2-yl)methyl)-3-(1-(methylsulfonyl)piperidin-4-yl)oxazolidin-2-one], for which the IC50 amounted to 280 nM in test [1] and 7570 nM in test [2].

On to `CO[C@@H]1[C@@H](n2cc(-c3cc(F)c(F)c(F)c3)nn2)[C@@H](O)[C@@H](CO)O[C@@H]1C[C@@H]1CN(C2CCN(S(C)(=O)=O)CC2)C(=O)O1` [Example 5.08, (R)-5-(((2R,3R,4S,5R,6R)-5-hydroxy-6-(hydroxymethyl)-3-methoxy-4-(4-(3,4,5-trifluorophenyl)-1H-1,2,3-triazol-1-yl)tetrahydro-2H-pyran-2-yl)methyl)-3-(1-(methylsulfonyl)piperidin-4-yl)oxazolidin-2-one], for which the IC50 in test [1] was 18 nM; in test [2], 160 nM.

Turning to `CO[C@@H]1[C@@H](n2cc(-c3cc(F)c(F)c(F)c3)nn2)[C@@H](O)[C@@H](CO)O[C@@H]1C[C@H]1CN(C2CCN(C(=O)C(C)C)CC2)C(=O)O1` [Example 5.12, (S)-5-(((2R,3R,4S,5R,6R)-5-hydroxy-6-(hydroxymethyl)-3-methoxy-4-(4-(3,4,5-trifluorophenyl)-1H-1,2,3-triazol-1-yl)tetrahydro-2H-pyran-2-yl)methyl)-3-(1-isobutyrylpiperidin-4-yl)oxazolidin-2-one], the IC50 in test [1] stood at 130 nM; in test [2] it was 1000 nM.

Turning to `CO[C@@H]1[C@@H](n2cc(-c3cc(F)c(F)c(F)c3)nn2)[C@@H](O)[C@@H](CO)O[C@@H]1C[C@@H]1CN(C2CCN(C(=O)C(C)C)CC2)C(=O)O1` [Example 5.13, (R)-5-(((2R,3R,4S,5R,6R)-5-hydroxy-6-(hydroxymethyl)-3-methoxy-4-(4-(3,4,5-trifluorophenyl)-1H-1,2,3-triazol-1-yl)tetrahydro-2H-pyran-2-yl)methyl)-3-(1-isobutyrylpiperidin-4-yl)oxazolidin-2-one], the IC50 in test [1] amounted to 590 nM; in test [2], 4730 nM.

For `CO[C@@H]1[C@@H](n2cc(-c3cc(F)c(F)c(F)c3)nn2)[C@@H](O)[C@@H](CO)O[C@@H]1C[C@H]1CN(C2CCN(C(=O)OC(C)(C)C)CC2)C(=O)O1` [Example 5.14, tert-butyl 4-((S)-5-(((2R,3R,4S,5R,6R)-5-hydroxy-6-(hydroxymethyl)-3-methoxy-4-(4-(3,4,5-trifluorophenyl)-1H-1,2,3-triazol-1-yl)tetrahydro-2H-pyran-2-yl)methyl)-2-oxooxazolidin-3-yl)piperidine-1-carboxylate], the IC50 was 340 nM in test [1] and 6410 nM in test [2].

For `CO[C@@H]1[C@@H](n2cc(-c3cc(F)c(F)c(F)c3)nn2)[C@@H](O)[C@@H](CO)O[C@@H]1C[C@@H]1CN(C2CCN(C(=O)OC(C)(C)C)CC2)C(=O)O1` [Example 5.15, tert-butyl 4-((R)-5-(((2R,3R,4S,5R,6R)-5-hydroxy-6-(hydroxymethyl)-3-methoxy-4-(4-(3,4,5-trifluorophenyl)-1H-1,2,3-triazol-1-yl)tetrahydro-2H-pyran-2-yl)methyl)-2-oxooxazolidin-3-yl)piperidine-1-carboxylate], the IC50 in test [1] is 50 nM; in test [2], 210 nM.

In the case of `CO[C@@H]1[C@@H](n2cc(-c3cc(F)c(F)c(F)c3)nn2)[C@@H](O)[C@@H](CO)O[C@@H]1Cc1cc(C2CCC(F)(F)CC2)sn1` [Example 6.01, (2R,3R,4S,5R,6R)-6-((5-(4,4-difluorocyclohexyl)isothiazol-3-yl)methyl)-2-(hydroxymethyl)-5-methoxy-4-(4-(3,4,5-trifluorophenyl)-1H-1,2,3-triazol-1-yl)tetrahydro-2H-pyran-3-ol], the IC50 in test [1] was found to be 560 nM; in test [2], 6380 nM.

For `CO[C@@H]1[C@@H](n2cc(-c3cc(F)c(F)c(F)c3)nn2)[C@@H](O)[C@@H](CO)O[C@@H]1Cc1cc(C2CCN(C(=O)OC(C)(C)C)CC2)sn1` [Example 6.02, tert-butyl 4-(3-(((2R,3R,4S,5R,6R)-5-hydroxy-6-(hydroxymethyl)-3-methoxy-4-(4-(3,4,5-trifluorophenyl)-1H-1,2,3-triazol-1-yl)tetrahydro-2H-pyran-2-yl)methyl)isothiazol-5-yl)piperidine-1-carboxylate], the concentration for half-maximal inhibition (IC50) in test [1] worked out at 110 nM; in test [2], 1970 nM.

For `CO[C@@H]1[C@@H](n2cc(-c3cc(F)c(F)c(F)c3)nn2)[C@@H](O)[C@@H](CO)O[C@@H]1Cc1cc(C2CCNCC2)sn1` [Example 6.03, (2R,3R,4S,5R,6R)-2-(hydroxymethyl)-5-methoxy-6-((5-(piperidin-4-yl)isothiazol-3-yl)methyl)-4-(4-(3,4,5-trifluorophenyl)-1H-1,2,3-triazol-1-yl)tetrahydro-2H-pyran-3-ol], the IC50 turned out to be 220 nM in test [1] and 4160 nM in test [2].

As to `CO[C@@H]1[C@@H](n2cc(-c3cc(F)c(F)c(F)c3)nn2)[C@@H](O)[C@@H](CO)O[C@@H]1Cn1cnc(C(C)(C)C)c1` [Example 6.04, (2R,3R,4S,5R,6R)-6-((4-(tert-butyl)-1H-imidazol-1-yl)methyl)-2-(hydroxymethyl)-5-methoxy-4-(4-(3,4,5-trifluorophenyl)-1H-1,2,3-triazol-1-yl)tetrahydro-2H-pyran-3-ol], the half-inhibitory concentration (IC50) worked out at 180 nM in test [1] and 2380 nM in test [2].

On to `CO[C@@H]1[C@@H](n2cc(-c3cc(F)c(F)c(F)c3)nn2)[C@@H](O)[C@@H](CO)O[C@@H]1Cc1cn(-c2ccccc2)c(=O)o1` [Example 6.05, 5-(((2R,3R,4S,5R,6R)-5-hydroxy-6-(hydroxymethyl)-3-methoxy-4-(4-(3,4,5-trifluorophenyl)-1H-1,2,3-triazol-1-yl)tetrahydro-2H-pyran-2-yl)methyl)-3-phenyloxazol-2(3H)-one], for which the 50% inhibitory concentration (IC50) in test [1] worked out at 250 nM; in test [2], 8190 nM.

Turning to `CO[C@@H]1[C@@H](n2cc(-c3ccc(C)c(F)c3F)nn2)[C@@H](O)[C@@H](CO)O[C@@H]1CN1CC(=O)N(C2CCCCC2)C1` [Example 6.06, 3-cyclohexyl-1-(((2R,3R,4S,5R,6R)-4-(4-(2,3-difluoro-4-methylphenyl)-1H-1,2,3-triazol-1-yl)-5-hydroxy-6-(hydroxymethyl)-3-methoxytetrahydro-2H-pyran-2-yl)methyl)imidazolidin-4-one], the 50% inhibitory concentration (IC50) in test [1] was found to be 42 nM; in test [2], 1630 nM.

Turning to `CO[C@@H]1[C@@H](n2cc(-c3cc(F)c(F)c(F)c3)nn2)[C@@H](O)[C@@H](CO)O[C@@H]1CN1CN(C2CCN(C(C)=O)CC2)CC1=O` [Example 6.07, 1-(1-acetylpiperidin-4-yl)-3-(((2R,3R,4S,5R,6R)-5-hydroxy-6-(hydroxymethyl)-3-methoxy-4-(4-(3,4,5-trifluorophenyl)-1H-1,2,3-triazol-1-yl)tetrahydro-2H-pyran-2-yl)methyl)imidazolidin-4-one], the concentration for half-maximal inhibition (IC50) in test [1] was 150 nM; in test [2], 910 nM.

As for `CO[C@@H]1[C@@H](n2cc(-c3cc(F)c(F)c(F)c3)nn2)[C@@H](O)[C@@H](CO)O[C@@H]1CN1CC(=O)N(C2CCN(C(C)=O)CC2)C1` [Example 6.08, 3-(1-acetylpiperidin-4-yl)-1-(((2R,3R,4S,5R,6R)-5-hydroxy-6-(hydroxymethyl)-3-methoxy-4-(4-(3,4,5-trifluorophenyl)-1H-1,2,3-triazol-1-yl)tetrahydro-2H-pyran-2-yl)methyl)imidazolidin-4-one], the half-maximal inhibitory concentration (IC50) was found to be 22 nM in test [1] and 73 nM in test [2].

Regarding `CO[C@@H]1[C@@H](n2cc(-c3cc(F)c(F)c(F)c3)nn2)[C@@H](O)[C@@H](CO)O[C@@H]1CN1CC(=O)N(C2CCCCC2)C1` [Example 6.09, 3-cyclohexyl-1-(((2R,3R,4S,5R,6R)-5-hydroxy-6-(hydroxymethyl)-3-methoxy-4-(4-(3,4,5-trifluorophenyl)-1H-1,2,3-triazol-1-yl)tetrahydro-2H-pyran-2-yl)methyl)imidazolidin-4-one], the IC50 in test [1] turned out to be 59 nM; in test [2], 6720 nM.
